Measured values published in patent publication US6479515B1, “Heterocyclic benzenesulphonamide compounds as bradykinine antagonists” (Fournier Industrie et Sante, priority 1999, dated 2002).
Structures can show the parent of a compound that is named as a salt. Where two headings read alike, the source gives them in different places.

Legend:
bradykinin B2 receptor = target: T1, bradykinin B2 receptor (Homo sapiens, UniProt P30411); experiment: inhibition of the contraction of the isolated human umbilical vein in the presence of bradykinin; type: cell-based
T1 construct: from tissue; host or cells: isolated human umbilical vein
T1 sequence (P30411 1-391): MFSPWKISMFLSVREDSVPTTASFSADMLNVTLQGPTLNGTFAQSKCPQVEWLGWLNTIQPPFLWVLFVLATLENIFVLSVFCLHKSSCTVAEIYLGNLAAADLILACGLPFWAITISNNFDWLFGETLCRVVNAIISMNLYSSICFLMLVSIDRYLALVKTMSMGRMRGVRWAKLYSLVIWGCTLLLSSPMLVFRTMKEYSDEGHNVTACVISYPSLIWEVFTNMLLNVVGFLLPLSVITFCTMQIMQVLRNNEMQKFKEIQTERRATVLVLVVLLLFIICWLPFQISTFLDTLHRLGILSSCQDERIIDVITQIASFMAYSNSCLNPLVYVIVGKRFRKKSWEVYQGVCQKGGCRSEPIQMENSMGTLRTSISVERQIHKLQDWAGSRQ
Description: This antagonist character is expressed by the value pA2, calculated according to a biological test employed in order to measure the inhibition of the contraction of the isolated human umbilical vein by the compounds according to the invention in the presence of bradykinin. The test procedure and the method of calculation of pA2 are described in the articles of D. Pruneau et al. published in Br. J. Pharmacol. 1998, 125, p 365-372 and J L. Paquet et al. Br. J. Pharmacol. 1999, 126 (in print).

human B2 receptor = target: T2, human B2 receptor (Homo sapiens, UniProt P30411); experiment: competitive binding test on CHO cell membranes expressing the human B2 receptor using [3H]-bradykinin as ligand
T2 construct: expressed in transfected cells; host or cells: CHO cells (membranes)
T2 sequence (P30411 1-391): T1 sequence (P30411 1-391)
Experimental: The activity of the products according to the invention was evaluated, according to a first aspect, as a function of their aptitude to bind to the bradykinin B2 receptors. […] It is likewise known that bradykinin is amongst one of the most powerful algesic agents known. The mode of action of kinins and more particularly of bradykinin makes a coupling of the peptides to the two types of receptors called B1 and B2 respectively take place. The B2 receptor belongs to the large family of receptors with seven transmembrane domains coupled to the G proteins and seems to be more particularly involved in the field of the pathologies mentioned above. This is the reason why the products of the invention, which have the property of being able to bind to the B2 receptor, inhibit the binding of bradykinin and, consequently, suppress its harmful activity. The test employed in order to measure this property is a competitive binding test on CHO cell membranes expressing the human B2 receptor using bradykinin labelled with tritium ([^3H]-bradykinin) as ligand.
The results are expressed by the Ki value, as calculated according to the recommended method with the description of the test employed and described according to D. Pruneau et al., in Br. J. Pharmacol. 1998, 125 p 365-372.

[1] = isolated human umbilical vein, contraction in the presence of bradykinin, read-out: pA2 (converted)

Row | SMILES | Kb (bradykinin B2 receptor; [1]) [nM] | Ki (human B2 receptor) [nM] | Kb (bradykinin B2 receptor) [nM]
1 | Cc1cc(-n2ccnc2)c2cccc(OCc3c(Cl)ccc(S(=O)(=O)N4CCC[C@H]4C(=O)N(C)CCN(C)CCCCO)c3Cl)c2n1 [Example 103, 1-[[2,4-Dichloro-3-[[[4-(1H-imidazol-1-yl)-2-methyl-8-quinolinyl]oxy]methyl]-phenyl]sulphonyl]-N-methyl-N-[2-[[4-(hydroxy)butyl](methyl)amino]ethyl]-2(S)-pyrrolidinecarboxamide, methanesulphonate] | 12.6 | 21 | 
2 | Cc1cc(-n2ccnc2)c2cccc(OCc3c(Cl)ccc(S(=O)(=O)N4CCC[C@H]4C(=O)NCC4CCN(CCC(=O)O)CC4)c3Cl)c2n1 [Example 115, 4-[[[[1-[[2,4-Dichloro-3-[[[4-(1H-imidazol-1-yl)-2-methyl-8-quinolinyl]oxy]-methyl]phenyl]sulphonyl]-2(S)-pyrrolidinyl]carbonyl]amino]methyl]-1-piperidinepropanoic acid, tartrate] |  | 35 | 3.16
3 | CNCCCNC(=O)[C@@H]1CCCN1S(=O)(=O)c1ccc(Cl)c(COc2cccc3c(-n4ccnc4)cc(C)nc23)c1Cl [Example 123, 1-[[2,4-Dichloro-3-[[[4-(1H-imidazol-1-yl)-2-methyl-8-quinolinyl]oxy]methyl]-phenyl]sulphonyl]-N-[3-(methylamino)propyl]-2(S)-pyrrolidinecarboxamide, trifluoroacetate] |  | 8.1 | 3.98
4 | Cc1cc(-n2ccnc2)c2cccc(OCc3c(Cl)ccc(S(=O)(=O)N4CC[C@@H](O)C4)c3Cl)c2n1 [Example 170, 1-[[2,4-Dichloro-3-[[[4-(1H-imidazol-1-yl)-2-methyl-8-quinolinyl]oxy]methyl]-phenyl]sulphonyl]-3(R)-pyrrolidinol, tartrate] |  | 7.8 | 10

Second part, led by results:

Row | Kb (bradykinin B2 receptor; [1]) [nM] | Ki (human B2 receptor) [nM] | SMILES | Kb (bradykinin B2 receptor) [nM]
5 | 5.01 | 15 | Cc1cc(-n2ccnc2)c2cccc(OCc3c(Cl)ccc(S(=O)(=O)N4CCC[C@H]4C(=O)NCC4CCN(Cc5ccccn5)CC4)c3Cl)c2n1 [Example 109, 1-[[2,4-Dichloro-3-[[[4-(1H-imidazol-1-yl)-2-methyl-8-quinolinyl]oxy]methyl]-phenyl]sulphonyl]-N-[[1-(2-pyridinylmethyl)-4-piperidinyl]methyl]-2(S)-pyrrolidinecarboxamide, methanesulphonate] | 
6 | 6.31 | 5.8 | Cc1cc(-n2cncn2)c2cccc(OCc3c(Cl)ccc(S(=O)(=O)N4CCC[C@H]4C(=O)NCC4CCN(CCO)CC4)c3Cl)c2n1 [Example 166, 1-[[2,4-Dichloro-3-[[[2-methyl-4-(1H-1,2,4-triazol-1-yl)-2-methyl-8-quinolinyl]oxy]methyl]phenyl]sulphonyl]-N-[[1-(2-(hydroxyethyl)-4-piperidinyl]methyl]-2(S)-pyrrolidinecarboxamide, methanesulphonate] | 
7 | 7.94 | 8.8 | CC(=O)N[C@H]1CCN(S(=O)(=O)c2ccc(Cl)c(COc3cccc4c(-n5ccnc5)cc(C)nc34)c2Cl)C1 [Example 174, N-[1-[[2,4-Dichloro-3-[[[4-(1H-imidazol-1-yl)-2-methyl-8-quinolinyl]oxy]-methyl]phenyl]sulphonyl]-3(S)-pyrrolidinyl]acetamide] | 
